Measured values as given in ChEMBL document CHEMBL4196183, “Discovery of New Allosteric Modulators of the Urotensinergic System through Substitution of the Urotensin II-Related Peptide (URP) Phenylalanine Residue” (J Med Chem, 2018).
Calls of active or inactive are those of the source. The rule behind the calls is not given here.

Assays:
Urotensin-2 receptor [1] = target: T1, Urotensin-2 receptor (Homo sapiens, UniProt Q9UKP6); test: Displacement of [Na125I]-synthetic URP from human UT receptor expressed in HEK293 cell membranes incubated for 2 hrs by gamma-counting
T1 sequence (Q9UKP6 whole entry): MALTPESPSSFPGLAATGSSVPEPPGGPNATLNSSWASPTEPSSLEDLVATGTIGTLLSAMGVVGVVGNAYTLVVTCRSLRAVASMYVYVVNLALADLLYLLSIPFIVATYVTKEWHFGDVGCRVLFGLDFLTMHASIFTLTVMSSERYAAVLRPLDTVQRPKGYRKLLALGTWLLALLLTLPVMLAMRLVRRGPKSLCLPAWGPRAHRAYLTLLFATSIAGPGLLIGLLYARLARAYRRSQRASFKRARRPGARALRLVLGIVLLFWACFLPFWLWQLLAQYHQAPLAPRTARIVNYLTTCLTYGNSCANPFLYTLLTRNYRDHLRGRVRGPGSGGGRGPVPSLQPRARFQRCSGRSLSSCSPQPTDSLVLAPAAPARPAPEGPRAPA

Urotensin-2 receptor [2] = target: T2, Urotensin-2 receptor (Rattus norvegicus, UniProt P49684); test: Agonist activity at UT receptor in Sprague-Dawley rat thoracic aortic ring assessed as induction of contraction; format: functional
T2 sequence (P49684 whole entry): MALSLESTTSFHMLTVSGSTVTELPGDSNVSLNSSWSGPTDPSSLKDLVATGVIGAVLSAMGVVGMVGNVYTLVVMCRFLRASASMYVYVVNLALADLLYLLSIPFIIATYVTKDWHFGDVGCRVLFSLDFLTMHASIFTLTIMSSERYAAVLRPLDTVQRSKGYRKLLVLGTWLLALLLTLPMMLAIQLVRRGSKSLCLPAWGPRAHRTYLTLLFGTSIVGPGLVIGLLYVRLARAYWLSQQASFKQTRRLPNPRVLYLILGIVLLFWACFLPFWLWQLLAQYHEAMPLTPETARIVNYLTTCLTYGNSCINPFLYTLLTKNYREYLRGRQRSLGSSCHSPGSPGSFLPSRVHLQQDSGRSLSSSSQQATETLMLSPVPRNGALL

[3] = target: T3, Urotensin-2 receptor (Rattus norvegicus) (UniProt P49684); test: Agonist activity at UT receptor in Sprague-Dawley rat thoracic aortic ring assessed as induction of contraction relative to KCl-induced contraction; format: functional
T3 sequence (whole entry): T2 sequence (P49684 whole entry)

[4] = target: T3, Urotensin-2 receptor (Rattus norvegicus); test: (§1) Antagonist activity at UT receptor in Sprague-Dawley rat thoracic aortic ring assessed as reduction in urotensin-2-induced contraction by measuring pEC50 for human urotensin-2-induced contraction at 1 uM pre-incubated for 30 mins before urotensin-2 stimulation (reference value: 8.59 +/- 0.12); format: functional
[5] = target: T3, Urotensin-2 receptor (Rattus norvegicus); test: as §1, with “Emax” for “pEC50”, “stimulation relative to KCl-induced contraction” for “stimulation”, “101” for “8.59”, “4%)” for “0.12)”; format: functional
[6] = target: T3, Urotensin-2 receptor (Rattus norvegicus); test: (§2) Antagonist activity at UT receptor in Sprague-Dawley rat thoracic aortic ring assessed as reduction in URP-induced contraction by measuring pEC50 for […] at 1 uM pre-incubated for 30 mins before urotensin-2 stimulation (reference value: 8.16 +/- 0.08); format: functional
[7] = target: T3, Urotensin-2 receptor (Rattus norvegicus); test: as §2, with “Emax” for “pEC50”, “[…] relative to KCl-induced contraction” for “stimulation”, “107” for “8.16”, “3%)” for “0.08)”; format: functional
[8] = target: T3, Urotensin-2 receptor (Rattus norvegicus); test: Antagonist activity at UT receptor in Sprague-Dawley rat thoracic aortic ring assessed as reduction in urotensin-2-induced contraction by measuring Emax for human urotensin-2-induced contraction at 1 x 10^-8M uM pre-incubated for 30 mins before urotensin-2 stimulation (reference value: 101 +/- 4%); format: functional
[9] = target: T3, Urotensin-2 receptor (Rattus norvegicus); test: Antagonist activity at UT receptor in Sprague-Dawley rat thoracic aortic ring assessed as reduction in urotensin-2-induced contraction by measuring Emax for human urotensin-2-induced contraction at 1 x 10^-7M uM pre-incubated for 30 mins before urotensin-2 stimulation (reference value: 101 +/- 4%); format: functional
[10] = target: T3, Urotensin-2 receptor (Rattus norvegicus); test: (§3) Antagonist activity at UT receptor in Sprague-Dawley rat thoracic aortic ring assessed as reduction in URP-induced contraction by measuring Emax for human urotensin-2-induced contraction at 3 x 10^-10M pre-incubated for 30 mins before urotensin-2 stimulation relative to KCl-induced contraction (reference value: 107 +/- 3%); format: functional
[11] = target: T3, Urotensin-2 receptor (Rattus norvegicus); test: as §3, with “10^-9M” for “10^-10M”; format: functional
[12] = target: T3, Urotensin-2 receptor (Rattus norvegicus); test: as §3, with “at 1” for “at 3”, “x 10^-8M” for “x 10^-10M”; format: functional
[13] = target: T3, Urotensin-2 receptor (Rattus norvegicus); test: as §3, with “at 1” for “at 3”, “x 10^-7M” for “x 10^-10M”; format: functional
Urotensin-2 receptor [14] = target: T1, Urotensin-2 receptor; test: Agonist activity at human UT receptor expressed in HEK293 cells co-expressing Gq-polycistronic BRET biosensor assessed as induction of Gq activation measured for 5 mins by luminescence detection based BRET assay; format: functional, cell-based
[15] = target: T4, Urotensin-2 receptor (Homo sapiens) (UniProt Q9UKP6); test: Agonist activity at human UT receptor expressed in HEK293 cells co-expressing Gq-polycistronic BRET biosensor assessed as induction of Gq activation measured for 5 mins by luminescence detection based BRET assay relative to 10 uM URP; format: functional, cell-based
T4 sequence (whole entry): T1 sequence (Q9UKP6 whole entry)

Urotensin-2 receptor [16] = target: T1, Urotensin-2 receptor; test: Agonist activity at human UT receptor expressed in HEK293 cells co-expressing G12-polycistronic BRET biosensor assessed as induction of G12 activation measured for 5 mins by luminescence detection based BRET assay; format: functional, cell-based
[17] = target: T4, Urotensin-2 receptor (Homo sapiens); test: Agonist activity at human UT receptor expressed in HEK293 cells co-expressing G12-polycistronic BRET biosensor assessed as induction of G12 activation measured for 5 mins by luminescence detection based BRET assay relative to 10 uM URP; format: functional, cell-based
Urotensin-2 receptor [18] = target: T1, Urotensin-2 receptor; test: Agonist activity at human UT receptor expressed in HEK293 cells co-expressing beta-arrestin1-polycistronic BRET biosensor assessed as induction of beta-arrestin1 recruitment measured for 5 mins by luminescence detection based BRET assay; format: functional, cell-based
[19] = target: T4, Urotensin-2 receptor (Homo sapiens); test: Agonist activity at human UT receptor expressed in HEK293 cells co-expressing beta-arrestin1-polycistronic BRET biosensor assessed as induction of beta-arrestin1 recruitment measured for 5 mins by luminescence detection based BRET assay relative to 10 uM URP; format: functional, cell-based
[20] = target: T4, Urotensin-2 receptor (Homo sapiens); test: (§4) Selectivity index, change in deltalog(Tau/KA) for agonist activity at human UT receptor expressed in HEK293 cells co-expressing G12-polycistronic BRET biosensor assessed as induction of G12 activation by luminescence detection based BRET assay to deltalog(Tau/KA) for agonist activity at human UT receptor expressed in HEK293 cells co-expressing Gq-polycistronic BRET biosensor assessed as induction of Gq activation by luminescence detection based BRET assay; format: functional, cell-based
[21] = target: T4, Urotensin-2 receptor (Homo sapiens); test: as §4, with “Bias factor, ratio of” for “Selectivity index, change in”; format: functional, cell-based
[22] = target: T4, Urotensin-2 receptor (Homo sapiens); test: (§5) Bias factor, ratio of deltalog(Tau/KA) for agonist activity at human UT receptor expressed in HEK293 cells co-expressing Gq-polycistronic BRET biosensor assessed as induction of Gq activation by luminescence detection based BRET assay to deltalog(Tau/KA) for agonist activity at human UT receptor expressed in HEK293 cells co-expressing G12-polycistronic BRET biosensor assessed as induction of G12 activation by luminescence detection based BRET assay; format: functional, cell-based
[23] = target: T4, Urotensin-2 receptor (Homo sapiens); test: Selectivity index, change in deltalog(Tau/KA) for agonist activity at human UT receptor expressed in HEK293 cells co-expressing Gq-polycistronic BRET biosensor assessed as induction of Gq activation by luminescence detection based BRET assay to deltalog(Tau/KA) for agonist activity at human UT receptor expressed in HEK293 cells co-expressing beta-arrestin1-polycistronic BRET biosensor assessed as induction of beta-arrestin1 recruitment by luminescence detection based BRET assay; format: functional, cell-based
[24] = target: T4, Urotensin-2 receptor (Homo sapiens); test: as §5, with “beta-arrestin1-polycistronic” for “G12-polycistronic”, “beta-arrestin1 recruitment” for “G12 activation”; format: functional, cell-based
[25] = target: T4, Urotensin-2 receptor (Homo sapiens); test: (§6) Bias factor, ratio of deltalog(Tau/KA) for agonist activity at human UT receptor expressed in HEK293 cells co-expressing beta-arrestin1-polycistronic BRET biosensor assessed as induction of beta-arrestin1 recruitment by luminescence detection based BRET assay to deltalog(Tau/KA) for agonist activity at human UT receptor expressed in HEK293 cells co-expressing Gq-polycistronic BRET biosensor assessed as induction of Gq activation by luminescence detection based BRET assay; format: functional, cell-based
[26] = target: T4, Urotensin-2 receptor (Homo sapiens); test: Selectivity index, change in deltalog(Tau/KA) for agonist activity at human UT receptor expressed in HEK293 cells co-expressing beta-arrestin1-polycistronic BRET biosensor assessed as induction of beta-arrestin1 recruitment by luminescence detection based BRET assay to deltalog(Tau/KA) for agonist activity at human UT receptor expressed in HEK293 cells co-expressing G12-polycistronic BRET biosensor assessed as induction of G12 activation by luminescence detection based BRET assay to; format: functional, cell-based
[27] = target: T4, Urotensin-2 receptor (Homo sapiens); test: as §6, with “G12-polycistronic” for “Gq-polycistronic”, “G12” for “Gq”; format: functional, cell-based
[28] = target: T4, Urotensin-2 receptor (Homo sapiens); test: Bias factor, ratio of deltalog(Tau/KA) for agonist activity at human UT receptor expressed in HEK293 cells co-expressing G12-polycistronic BRET biosensor assessed as induction of G12 activation by luminescence detection based BRET assay to deltalog(Tau/KA) for agonist activity at human UT receptor expressed in HEK293 cells co-expressing beta-arrestin1-polycistronic BRET biosensor assessed as induction of beta-arrestin1 recruitment by luminescence detection based BRET assay; format: functional, cell-based
[29] = target: T3, Urotensin-2 receptor (Rattus norvegicus); test: Agonist activity at UT receptor in Sprague-Dawley rat thoracic aortic ring assessed as induction of contraction at 10^-5M relative to KCl-induced contraction; format: functional

| IC50 (Urotensin-2 receptor [1]) [nM] | EC50 (Urotensin-2 receptor [2]) [nM] | Emax [3] [%] | pEC50 [4] | Emax [5] [%] | pEC50 [6] | Emax [7] [%] | EC50 (Urotensin-2 receptor [14]) [nM] | Emax [15] [%] | Emax [17] [%] | Emax [19] [%] | deltalog(Tau/KA) [20] | fold change (FC) [21] | fold change (FC) [22] | selectivity index, deltadeltalog(Tau/KA) [23] | fold change (FC) [24] | fold change (FC) [25] | deltadeltalog(Tau/KA) (beta-arrestin1 selectivity index) [26] | fold change (FC) [27] | fold change (FC) [28] | Compound | other results |
| --- | --- | --- | --- | --- | --- | --- | --- | --- | --- | --- | --- | --- | --- | --- | --- | --- | --- | --- | --- | --- | --- |
| 5.37 | 28.8 | 25 | Active | 23 | Active | 31 | 15.1 | 91 | 80 | 76 | 0.15 | 1.4 | 0.7 | 0.45 | 2.8 | 0.4 | -0.6 | 0.3 | 3.9 | CC(C)[C@H](NC(=O)[C@@H]1CSSC[C@H](NC(=O)[C@H](C)N)C(=O)N[C@@H](Cc2ccc(-c3ccccc3)cc2)C(=O)N[C@@H](Cc2c[nH]c3ccccc23)C(=O)N[C@@H](CCCCN)C(=O)N[C@@H](Cc2ccc(O)cc2)C(=O)N1)C(=O)O | Emax [8]: 78%; Emax [9]: 58%; Emax [10]: 104%; Emax [11]: 94%; Emax [12]: 75%; Emax [13]: 60%; EC50 (Urotensin-2 receptor [16]): 120 nM; EC50 (Urotensin-2 receptor [18]): 603 nM |
| – | – | – | – | 95 | – | 107 | – | 91 | 91 | 97 | 0.64 | 4.3 | 0.2 | -0.73 | 0.2 | 5.3 | 0.09 | 1.2 | 0.8 | CC(C)[C@H](NC(=O)[C@@H]1CSSC[C@H](NC(=O)[C@H](N)CC(=O)O)C(=O)N[C@@H](Cc2ccc(I)cc2)C(=O)N[C@@H](Cc2c[nH]c3ccccc23)C(=O)N[C@@H](CCCCN)C(=O)N[C@@H](Cc2ccc(O)cc2)C(=O)N1)C(=O)O | Emax [29]: 49% |
| 26.9 | 32.4 | 28 | Active | 15 | Active | 25 | 27.5 | 102 | 78 | 94 | 0.24 | 1.8 | 0.6 | -0.03 | 0.9 | 1.1 | -0.22 | 0.6 | 1.6 | CC(C)[C@H](NC(=O)[C@@H]1CSSC[C@H](NC(=O)[C@H](C)N)C(=O)N[C@@H](Cc2ccc(C#Cc3ccccc3)cc2)C(=O)N[C@@H](Cc2c[nH]c3ccccc23)C(=O)N[C@@H](CCCCN)C(=O)N[C@@H](Cc2ccc(O)cc2)C(=O)N1)C(=O)O | EC50 (Urotensin-2 receptor [16]): 148 nM; EC50 (Urotensin-2 receptor [18]): 759 nM |
